Values joined by “and” are separate entries in the source; they are usually repeats but may differ in a detail not shown here. Equal values may be shown once. Read-outs that look alike come from different tables or passages of the source.
What was measured:
H1975 = experiment: MTT cell viability assay, H1975; type: cell-based, human; conditions: MTT, value (95% CI), read-out: CC50 (µM) (CI) H1975
Description: (§1) The cytotoxic activity of compounds 3–13 was determined based on an MTT assay against different human tumor cell lines, using LASSBio-1586 (2), LASSBio-1735 (3), CA-4 (1) and pelitinib as standards (Table 2). To determine the cytotoxic selectivity index, compounds were also evaluated toward human lymphocytes (Table 3).
(§2) The target compounds were tested (0.0001–100 µM) for cytotoxic activity against selected human cancer cell lines, such as HL-60 (acute promyelocytic leukemia), MCF-7 (mammary adenocarcinoma), PC-3 (prostate adenocarcinoma), H1975 (non-small cell lung cancer—EGFR^L858R+T790M), PC-9 (non-small cell lung cancer—EGFR^L858R) H292 (mucoepidermoid pulmonary carcinoma—EGFR wild type), LoVo (colorectal adenocarcinoma—EGFRwild type) and GM16000 (lymphocyte). All the human cancer cell lines were purchased from Cell Bank of Rio de Janeiro—BCRJ. They were cultured in RPMI 1640 medium with 10% (v/v) FBS, 2 mM glutamine, at 37 °C in a humidified incubator containing 5% CO2.
(§3) The cytotoxicity of the compounds was evaluated by the MTT assay. […] For lymphocytic lines, a density of 0.3 × 10^6 cells/mL was used. Afterwards they were treated with varying concentrations of the target compounds 2–12 (0.0001–100 µM), CA-4 (1) and pelitinib at 37 °C, in triplicate. The medium was incubated with 20 μL of 5 mg/mL MTT solution for 3 h in a humidified incubator containing 5% CO2 [11].
(§4) The purple-colored formazan crystals formed in the wells were dissolved in DMSO and their absorbance was measured at 595 nm with a microplate reader (SpectraMax M5, Molecular Devices).

PC-3 = experiment: MTT cell viability assay, PC-3; type: cell-based; conditions: Homo sapiens, PC-3; MTT, 72 h; value (95% CI); read-out: CC50 (µM) (CI) PC-3
Description: as §1, §2
(§5) The cytotoxicity of the compounds was evaluated by the MTT assay. The cell lines were cultured in 96 well plates for 72 h with a density of 0.1 × 10^5 cells/mL to 0.7 × 10^5 cells/mL to adherent cell lines. For lymphocytic lines, a density of 0.3 × 10^6 cells/mL was used. Afterwards they were treated with varying concentrations of the target compounds 2–12 (0.0001–100 µM), CA-4 (1) and pelitinib at 37 °C, in triplicate. The medium was incubated with 20 μL of 5 mg/mL MTT solution for 3 h in a humidified incubator containing 5% CO2 [11].
as §4

LoVo [1] = experiment: MTT cell viability assay, LoVo; type: cell-based; conditions: Homo sapiens, MTT, 72 h, value (95% CI), read-out: CC50 (µM) (CI) LoVo
Description: as §1, §2, §5, §4

PC-9 = experiment: MTT cell viability assay, PC-9; type: cell-based, human; conditions: MTT, value (95% CI), read-out: CC50 (µM) (CI) PC-9
Description: as §1, §2, §3, §4

H292 = experiment: MTT cell viability assay, H292; type: cell-based, human; conditions: MTT, value (95% CI), read-out: CC50 (µM) (CI) H292
Description: as §1, §2, §3, §4

[2] = MTT cell viability assay, GM16000 lymphocytes; type: cell-based; conditions: GM16000 lymphocyte cells (non-tumor), human lymphocytes, value (95% CI)
Description: as §1
To establish the cytotoxic selective index (SI) of LASSBio-1586 homologs, they were studied on human lymphocyte cell lines (GM16000), using the MTT assay. The SI was calculated by the ratio between the CC50 on tumor and non-tumor cell lines. Although there is no consensus, values of SI ≥ 10 is considered satisfactory to assign safety to a new cytotoxic agent. This value means that the compound is more than ten times more cytotoxic to the tumor cell line than to normal cell line.
as §2, §5, §4

[3] = MTT cell viability assay, GM16000 lymphocytes; type: cell-based; conditions: GM16000 lymphocyte cells (non-tumor), human lymphocytes, value (95% CI); remark: listed apart in the source
HL-60 = experiment: MTT cell viability assay, HL-60; type: cell-based, human; conditions: Homo sapiens, MTT, value (95% CI), read-out: CC50 (µM) (CI) HL-60
Description: as §1, §2, §3, §4

LoVo [4] = experiment: MTT cell viability assay, LoVo; type: cell-based; conditions: Homo sapiens, 48 h, value (95% CI)
MCF-7 = experiment: MTT cell viability assay, MCF-7; type: cell-based, human; conditions: Homo sapiens, MCF7, 72 h, MTT, 72 h; value (95% CI); read-out: CC50 (µM) (CI) MCF-7
Description: as §1, §2, §5, §4

H1975 cells = experiment: Immunofluorescence of β-tubulin / microtubules; type: cell-based, human; conditions: H1975, 48 h; CA-4 0.3 µM, vincristine 0.5 µM, taxol 0.1 µM, LASSBio-1586 10 µM, LASSBio-1735 0.5 µM, LASSBio-2070 4.5 µM, LASSBio-2074 20 µM
Description: Antitubulin agents have been broadly classified into destabilizing or stabilizing agents, based on their interference with the dynamic balance of polymerization or depolymerization of microtubules. […] CA-4 (1, 0.3 µM), vincristine (0.5 µM) and taxol (0.1 µM) were used as standard controls.
After incubation, cells were rinsed with PBS and fixed with 4% paraformaldehyde in PBS for 10 min at room temperature. They were then permeabilized with 0.5% Triton-X 100 in PBS 3 times for 10 min. The same solution was used for all subsequent washing steps. Cells were incubated with an anti-beta-tubulin antibody for 1 h at 37 °C. After incubation, cells were washed for 30 min and incubated with Alexa Fluor® 488, conjugated secondary antibody for 1 h at 37 °C, and nuclei were labeled with DAPI (0.1 mg/mL in 0.9% NaCl).
Live cultured cells grown in coverslips were mounted in Prolong Gold solution (Molecular Probes, USA) and were imaged on a Leica TCS SPE confocal microscope (Leica Microsystems, Germany) using 63x 1.3 N.A. oil immersion and the images acquired by the LAS X software. Cell morphology, focusing on the microtubules was analyzed, qualitatively, using the public domain NIH ImageJ Program (developed at the National Institutes of the USA Health and available on the internet at http://imagej.nih.gov/ij/ (accessed on 1 September 2021).

[5] = Homo sapiens, NCI-H1975, 48 h, 48 h
[6] = Homo sapiens, NCI-H1975, 72 h, 72 h
[7] = Homo sapiens, NCI-H292, 48 h, 48 h
[8] = Homo sapiens, NCI-H292, 72 h, 72 h

| SMILES | CC50 (H1975; [5]) [µM] | CC50 (H1975; [6]) [µM] | CC50 (PC-3) [µM] | CC50 (LoVo [1]) [µM] | CC50 (PC-9; Homo sapiens, PC-9, 48 h, 48 h) [µM] | CC50 (PC-9; Homo sapiens, PC-9, 72 h, 72 h) [µM] | melting point | CC50 (H292; [7]) [µM] | CC50 (H292; [8]) [µM] | CC50 at 72 h [2] [µM] | CC50 at 48 h [3] [µM] | CC50 (HL-60; HL-60, 48 h, 48 h) [µM] | CC50 (HL-60; HL-60, 72 h, 72 h) [µM] | CC50 (LoVo [4]) [µM] | CC50 (MCF-7) [µM] | CC50 (H1975; 48 h) [µM] | CC50 (PC-9; 48 h) [µM] | CC50 (H292; 48 h) [µM] | cell morphology after treatment (H1975 cells) | effect on microtubules (stabilizing / destabilizing profile) (H1975 cells) |
| --- | --- | --- | --- | --- | --- | --- | --- | --- | --- | --- | --- | --- | --- | --- | --- | --- | --- | --- | --- | --- |
| C=CCN(/N=C/c1ccccc1)C(=O)c1cc(OC)c(OC)c(OC)c1 [LASSBio-2069 (8), (E)-N-allyl-N’-benzylidene-3,4,5-trimethoxybenzohydrazide] | 1.65 | 3.74 | 0.462 | 0.298 | 0.276 | 0.387 | 64.47 °C and 64 to 65 °C | 0.154 | 0.778 | 0.83 | 0.095 | 0.526 | 1.35 | 0.808 | 1.6 |  |  |  |  |  |
| CCN(/N=C/c1ccccc1)C(=O)c1cc(OC)c(OC)c(OC)c1 [LASSBio-2071 (4), (E)-N’-benzylidene-N-ethyl-3,4,5-trimethoxybenzohydrazide] |  | 4.86 | 1.66 | 0.301 |  | 0.384 | 83.94 °C and 83 to 84 °C |  | 2.55 | 5.13 | 2 | 6.03 | 0.231 | 3.05 | 1.24 | 4.91 | 0.881 | 0.3 |  |  |
| CCCN(/N=C/c1ccccc1)C(=O)c1cc(OC)c(OC)c(OC)c1 [LASSBio-2118 (5), (E)-N’-benzylidene-3,4,5-trimethoxy-N-propylbenzohydrazide] | 1.12 | 0.775 | 0.432 | 0.031 | 0.263 | 0.136 |  | 0.181 | 3.72 | 0.843 | 1.1 | 1.46 | 0.301 | 0.74 | 0.144 |  |  |  |  |  |
| CCCCN(/N=C/c1ccccc1)C(=O)c1cc(OC)c(OC)c(OC)c1 [LASSBio-2121 (6), (E)-N’-benzylidene-N-butyl-3,4,5-trimethoxybenzohydrazide] | 1.71 | 2.94 | 0.696 | 0.5 | 0.327 | 0.096 |  | 0.215 | 9.55 | 0.961 | 1.2 | 2.61 | 2.17 | 2 | 0.5 |  |  |  |  |  |
| COc1cc(C(=O)N(CCN2CCOCC2)/N=C/c2ccccc2)cc(OC)c1OC [LASSBio-2122 (12), (E)-N’-benzylidene-3,4,5-trimethoxy-N-(2-morpholinoethyl)benzohydrazide] | 6.37 | 2.48 | 2.4 | 0.421 | 1.5 | 0.871 |  | 0.412 | 2.79 | 5.65 | 3.8 | 5.09 | 4.15 | 1.05 | 4.11 |  |  |  |  |  |
| CCOc1cc2ncc(C#N)c(Nc3ccc(F)c(Cl)c3)c2cc1NC(=O)/C=C/CN(C)C [Pelitinib, reference compound] | 2.57 | 0.512 | 2.48 | 0.037 | 0.325 | 0.0591 |  | 0.48 | 0.0784 | 2.75 | 0.899 | 3.42 | 2.08 | 1.7 | 3.91 |  |  |  |  |  |
| CC(=O)O[C@H]1C(=O)[C@@]2(C)[C@H]([C@H](OC(=O)c3ccccc3)[C@]3(O)C[C@H](OC(=O)[C@H](O)[C@@H](NC(=O)c4ccccc4)c4ccccc4)C(C)=C1C3(C)C)[C@]1(OC(C)=O)CO[C@@H]1C[C@@H]2O [taxol, reference compound] |  |  |  |  |  |  |  |  |  |  |  |  |  |  |  |  |  |  | more spread-out morphology |  |
| CC[C@]1(O)C[C@H]2CN(CCc3c([nH]c4ccccc34)[C@@](C(=O)OC)(c3cc4c(cc3OC)N(C=O)[C@H]3[C@@](O)(C(=O)OC)[C@H](OC(C)=O)[C@]5(CC)C=CCN6CC[C@]43[C@@H]65)C2)C1 [vincristine, reference compound] |  |  |  |  |  |  |  |  |  |  |  |  |  |  |  |  |  |  | rounded shape | typical response of microtubule destabilizing agents |
